Like-named read-outs stand apart in the source and are kept apart here.
Tests used:
A375 melanoma cell line = assay: Antiproliferative activity, CellTiter-Glo, A375; format: cell-based; conditions: Homo sapiens, A-375, A375, 72 h
Method: Based on the previous preliminary tests, we sought to investigate the ability of synthesized compounds 5–15 and reference 1 in inhibiting the proliferation of BRAF^V600E mutant cancer cells. A first screening was conducted in A375 melanoma cell lines (Table 1, Figure S2). Encorafenib was employed for comparison.
(§1) The ability of compounds 5, 10, 11, 15–selected based on their chemical diversity–to inhibit cell proliferation was then tested both in A375 and in Colo205 cancer cell lines. […] P5B was obtained by joining the BRAF inhibitor BI 882370 to pomalidomide through a five PEG unit spacer (Figure S3). In compound P5B, the linker length was of 17 atoms, the same length of the spacer used to generate our compound 10. A375 and Colo205 cells were treated for 72 h with compounds 5, 10, 11, 15, and P5B, and the antiproliferative activity was measured by a luminescent ATP-based assay, which determines the number of viable cells based on their metabolic activity. […] However, P5B was more efficient in inhibiting tumor cell viability in comparison with the other selected compounds.
(§2) Cell viability was evaluated by means of CellTiter-Glo Luminescent Assay (Promega), which allows users to measure the ATP in the cell supernatant. The assay was performed according to manufacturer’s instructions. In brief, 4.10^3 A375 or Colo205 were seeded into 96-well plates and allowed to adhere at the wall overnight. Cells were treated for 72 h with BRAF inhibitor compounds. Then, 90 µL of the cell culture medium was transferred in a white 96-well plate, to which 10 µL of CellTiter-Glo was added before measurement of luminescence. Luminescence was measured by the SPARK M10 (Tecan, Männedorf, Switzerland) plate reader.

B-RAF (V600E) = biological target: T1, B-RAF (V600E) (Homo sapiens, UniProt P15056, V600E); assay: BRAF^V600E inhibition assay (B-RAF (V600E) Kinase Assay Kit, Kinase-Glo MAX); format: biochemical; conditions: isolated BRAF^V600E, ATP 10 μM, 30 °C, 45 min; three experiments in duplicate; read-out: BRAF (V600E) Kinase Activity IC50 (nM ± SEM)
T1 construct: purchased BPS Bioscience
Method: In a 96-well plate, the different inhibitor solutions in DMSO were mixed with Buffer, ATP (10 μM) and Raf substrate. […] After a 15 min delay to equilibrate plate temperature, 50 μL of Kinase-Glo Max was added in each well, and the luminescence was measured according to supplier’s instruction. The results, reported as IC50 ± S.E.M., were calculated with GrapPad Prism 7 and derive from three different experiments run in duplicate.

[1] = Stability in RPMI cell medium; format: in vitro ADME; conditions: RPMI cell culture medium with 10% FBS, RPMI with 10% FBS, 37 °C
Method: (§3) Stability of compounds was determined in RPMI medium and in human serum. DMSO stock solutions of compounds (10 mM) was added to RPMI (Sigma–Aldrich, Darmstadt, Germany) competed with 10% fetal bovine serum (FBS) plus 2 mM glutamine, penicillin (100 IU/mL), and streptomycin (100 μγ/mL; Sigma–Aldrich, Darmstadt, Germany) or to human serum (sterile-filtered from human male AB plasma, Sigma–Aldrich, Darmstadt, Germany), to obtain the 100 μM final concentration with 1% of DMSO. The resulting solutions were incubated at 37 °C for 48 h. At appropriate time intervals (0, 1, 5, 24 and 48 h), 300 µL of the reaction mixture was withdrawn and added to 300 µL of acetonitrile 0.1% TFA. The samples were vortexed, sonicated for 3 min and then centrifuged for 5 min at 2500× g. The clear supernatant was filtered through a PTFE 0.45 μm filter (VWR) and analyzed by RP-HPLC. Each experiment was independently repeated at least three times, and results are expressed as a percentage of unmodified compound over time. The half-life was determined by fitting the data with a one phase exponential decay equation (Graph Pad, Prism software vr. 5, GraphPad Software Inc., San Diego, CA, USA). […]
(§4) The column effluent was monitored at 226 and 300 nm, referenced against a 800 nm wavelength. […] Quantitation of compounds was obtained by calibration curves (linearity determined in a concentration range of 1–100 µM, r^2 > 0.99).

Colo205 cells = assay: Cell permeability in Colo205 cells; format: in vitro ADME; conditions: Colo205 cells (Table S1)
Stability in human serum = format: in vitro ADME; conditions: male, 37 °C
Method: as §3, §4

BRAF^V600E [2] = tested on: T2, BRAF^V600E; assay: Western blot, BRAF^V600E degradation in Colo205; format: cell-based; conditions: for BRAF^V600E degradation: Colo205, 24 h, 100–500 nM; for BRAF^V600E degradation at higher concentration: Colo205, up to 10 µM (Figure S4)
T2 construct: endogenous in cells; host or cells: A375 and Colo205 cell lines
Method: (§5) Finally, we investigated the capability of the most antiproliferative compounds in interfering with BRAF pathway, favoring target degradation. To this end, Western blot analysis was conducted 24 h after incubation with 10 and 11 in both A375 and Colo205 cell lines. […] This observation was consistent with their ability to inhibit BRAF^V600E.
(§6) To measure the capability of our compounds to interfere with BRAF pathway, pre-treated A375 and Colo205 cells were lysed. We then performed protein analysis through Western blot by using the following primary antibodies: anti-phospho ERK 1/2 (clone E10; dilution 1:1000; Cell Signaling Technology, Danvers, MA, USA) and anti-ERK (clone 137F5; dilution 1:1000; Cell Signaling Technology); anti-phospho MEK (clone S217/221; dilution 1:1000; Cell Signaling Technology); anti-MEK1,2 (clone 9122; dilution 1:1000; Cell Signaling Technology); anti-BRAF v600e (dilution 1:1000; Abcam, Cambridge, UK); and anti-total BRAF (dilution 1:1000; ThermoFisher, Waltham, MA, USA). Vinculin (clone E1E9B; dilution 1:1000; Cell Signaling Technology) was used as a loading control. The total protein amount was determined using the bicinchoninic acid (BCA) protein assay reagent (Thermo Scientific, Waltham, MA, USA). Equivalent amounts of protein were separated by SDS–PAGE on precast Bolt 4–12% Bis-Tris gel (Invitrogen, Carlsbad, CA, USA). Proteins were then transferred from gel to nitrocellulose with a Trans-Blot Turbo transfer system (Biorad, Hercules, CA, USA), probed with goat anti-rabbit IgG (H+L) secondary antibody, HRP conjugate (Invitrogen) or goat anti-mouse IgG (H+L) secondary antibody, HRP conjugate (Jackson ImmunoResearch Inc., Langcaster, PA, USA), and detected using enhanced chemiluminescence technique (Western Lightning Plus-ECL, Enhanced Chemiluminescence Substrate; Perkin Elmer, catalog # NEL105001EA, Waltham, MA, USA).

BRAF^V600E [3] = tested on: T2, BRAF^V600E; assay: Western blot, BRAF^V600E degradation in A375; format: cell-based; conditions: for BRAF^V600E degradation: A375, 24 h, 100–500 nM; for BRAF^V600E degradation at higher concentration: A375, up to 10 µM (Figure S4)
Method: as §5, §6

[4] = tested on: phosphorylation of MEK and ERK; assay: Western blot, BRAF signaling in A375; format: cell-based; conditions: A375, 24 h incubation
Method: as §5
(§7) To measure the capability of our compounds to interfere with BRAF pathway, pre-treated A375 and Colo205 cells were lysed. […] The total protein amount was determined using the bicinchoninic acid (BCA) protein assay reagent (Thermo Scientific, Waltham, MA, USA). […] Proteins were then transferred from gel to nitrocellulose with a Trans-Blot Turbo transfer system (Biorad, Hercules, CA, USA), probed with goat anti-rabbit IgG (H+L) secondary antibody, HRP conjugate (Invitrogen) or goat anti-mouse IgG (H+L) secondary antibody, HRP conjugate (Jackson ImmunoResearch Inc., Langcaster, PA, USA), and detected using enhanced chemiluminescence technique (Western Lightning Plus-ECL, Enhanced Chemiluminescence Substrate; Perkin Elmer, catalog # NEL105001EA, Waltham, MA, USA).

Colo205 cell line = assay: Antiproliferative activity, CellTiter-Glo, Colo205; format: cell-based; conditions: Homo sapiens, COLO 205; Colo205, 72 h (Figure 6b); read-out: Antiproliferative activity IC50 (nM ± SEM)
Method: as §1, §2

[5] = tested on: phosphorylation of MEK and ERK; assay: Western blot, BRAF signaling in Colo205; format: cell-based; conditions: Colo205, 24 h incubation
Method: as §5, §7

[6] = first screening (Table 1), read-out: Antiproliferative Activity IC50 ± SEM
[7] = second set of experiments (Figure 6a), read-out: Antiproliferative activity IC50 (nM ± SEM)

T1 sequence (P15056 whole entry V600E): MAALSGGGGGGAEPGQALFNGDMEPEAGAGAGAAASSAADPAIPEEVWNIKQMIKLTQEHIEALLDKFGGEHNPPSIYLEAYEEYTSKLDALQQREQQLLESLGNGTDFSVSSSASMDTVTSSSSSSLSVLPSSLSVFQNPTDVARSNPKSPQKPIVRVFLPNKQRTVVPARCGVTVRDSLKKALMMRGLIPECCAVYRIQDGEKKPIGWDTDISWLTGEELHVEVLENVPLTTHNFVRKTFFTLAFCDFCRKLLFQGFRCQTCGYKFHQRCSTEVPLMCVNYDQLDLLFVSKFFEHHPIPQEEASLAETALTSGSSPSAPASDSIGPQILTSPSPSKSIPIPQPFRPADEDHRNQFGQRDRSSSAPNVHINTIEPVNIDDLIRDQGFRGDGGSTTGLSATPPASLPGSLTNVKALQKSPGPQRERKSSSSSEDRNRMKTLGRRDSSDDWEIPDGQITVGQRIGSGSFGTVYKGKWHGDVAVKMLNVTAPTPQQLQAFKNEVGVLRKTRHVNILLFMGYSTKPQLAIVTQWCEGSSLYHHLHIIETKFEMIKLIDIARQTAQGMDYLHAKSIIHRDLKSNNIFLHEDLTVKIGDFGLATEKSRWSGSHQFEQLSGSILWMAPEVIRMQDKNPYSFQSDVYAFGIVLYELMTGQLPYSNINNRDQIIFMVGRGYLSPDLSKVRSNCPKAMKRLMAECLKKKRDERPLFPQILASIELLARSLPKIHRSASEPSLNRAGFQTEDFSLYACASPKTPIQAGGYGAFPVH

Row | IC50 (A375 melanoma cell line; [6]) [nM] | IC50 (B-RAF (V600E)) [nM] | half-life at 100 μM [1] [h] | half-life at 100 μM (Stability in human serum) [h] | IC50 (A375 melanoma cell line; [7]) [nM] | IC50 (Colo205 cell line) [nM] | SMILES | cell permeability (Colo205 cells) | BRAF^V600E degradation (BRAF^V600E [2]) | BRAF^V600E degradation at higher concentration (BRAF^V600E [2]) | BRAF^V600E degradation (BRAF^V600E [3]) | BRAF^V600E degradation at higher concentration (BRAF^V600E [3]) | phosphorylation of MEK and ERK [4] | phosphorylation of MEK and ERK [5]
1 | 1760 ± 287 | 57 ± 7 | 21 | 24 | – | – | CC(C)n1cc(-c2ccnc(NC[C@H](C)NC(=O)CCOCCOCCOCCNc3cccc4c3C(=O)N(C3CCC(=O)NC3=O)C4=O)n2)c(-c2cc(Cl)cc(NS(C)(=O)=O)c2F)n1 (stereo partly drawn) [Compound 8, N-((S)-1-((4-(3-(5-chloro-2-fluoro-3-(methylsulfonamido)phenyl)-1-isopropyl-1H-pyrazol-4-yl)pyrimidin-2-yl)amino)propan-2-yl)-3-(2-(2-(2-((2-(2,6-dioxopiperidin-3-yl)-1,3-dioxoisoindolin-4-yl)amino)ethoxy)ethoxy)ethoxy)propanamide] | ability to reach the cytosolic compartment | – | – | – | – | – | –
2 | 132 ± 1.95 | 75 ± 17 | 19 | 23 | 194 ± 36 | 31 ± 10 | CC(C)n1cc(-c2ccnc(NC[C@H](C)NC(=O)CCOCCOCCOCCOCCOCCNc3cccc4c3C(=O)N(C3CCC(=O)NC3=O)C4=O)n2)c(-c2cc(Cl)cc(NS(C)(=O)=O)c2F)n1 (stereo partly drawn) [Compound 10, N-((S)-1-((4-(3-(5-chloro-2-fluoro-3-(methylsulfonamido)phenyl)-1-isopropyl-1H-pyrazol-4-yl)pyrimidin-2-yl)amino)propan-2-yl)-1-((2-(2,6-dioxopiperidin-3-yl)-1,3-dioxoisoindolin-4-yl)amino)-3,6,9,12,15-pentaoxaoctadecan-18-amide] | – | not able to induce BRAF^V600E degradation | no degradation of the target protein | not able to induce BRAF^V600E degradation | no degradation of the target protein | able to decrease phosphorylation of MEK and ERK | able to decrease phosphorylation of MEK and ERK
3 | 389 ± 15.1 | 43 ± 16 | – | – | 417 ± 33 | 104 ± 20 | CC(C)n1cc(-c2ccnc(NC[C@H](C)NC(=O)CCOCCOCCn3cc(CNc4cccc5c4C(=O)N(C4CCC(=O)NC4=O)C5=O)nn3)n2)c(-c2cc(Cl)cc(NS(C)(=O)=O)c2F)n1 (stereo partly drawn) [Compound 11, N-((S)-1-((4-(3-(5-chloro-2-fluoro-3-(methylsulfonamido)phenyl)-1-isopropyl-1H-pyrazol-4-yl)pyrimidin-2-yl)amino)propan-2-yl)-3-(2-(2-(4-(((2-(2,6-dioxopiperidin-3-yl)-1,3-dioxoisoindolin-4-yl)amino)methyl)-1H-1,2,3-triazol-1-yl)ethoxy)ethoxy)propanamide] | – | not able to induce BRAF^V600E degradation | no degradation of the target protein | not able to induce BRAF^V600E degradation | no degradation of the target protein | able to decrease phosphorylation of MEK and ERK | able to decrease phosphorylation of MEK and ERK
